Data taken from patent publication US12502390B2, “Compositions comprising tigolaner for controlling parasites” ([…], priority 2019, dated 2025).
Where two headings read alike, the source gives them in different places.

What was measured:
[1] = Solubility of tigolaner in solketal (1,2-isopropylideneglycerol); type: physicochemical
Source text: In another embodiment of the composition the solvent component comprises only 1,2-isopropylideneglycerol.

Amblyomma hebraeum [2] = conditions: 100 ppm; cited from earlier work
Boophilus microplus [3] = conditions: Boophilus microplus dip test; 100 ppm; cited from earlier work
Boophilus microplus [4] = conditions: Boophilus microplus injection test; 20 μg/tick; cited from earlier work
Ctenocephalides felis [5] = conditions: Ctenocephalides felis oral test; 100 ppm; cited from earlier work
Ctenocephalides felis [6] = conditions: Ctenocephalides felis contact test; 1 μg/cm^2; cited from earlier work
Lucilia cuprina = conditions: 100 ppm; cited from earlier work
Musca domestica = conditions: 100 ppm; cited from earlier work
Rhipicephalus sanguineus = Rhipicephalus sanguineus contact test; 1 μg/cm^2; cited from earlier work
Ixodes ricinus = Ixodes ricinus contact test; 1 μg/cm^2; cited from earlier work
Amblyomma hebraeum [7] = conditions: Amblyomma hebraeum contact test; 1 μg/cm^2; cited from earlier work
Dermacentor variabilis = conditions: rats; day 2; application rate 10 mg/kg; cited from earlier work
Ctenocephalides felis [8] = conditions: rats, application rate 10 mg/kg, cited from earlier work

## Cn1nc(C(F)(F)C(F)(F)F)c(C(F)(F)F)c1-n1cc(-c2ccc(Cl)c(C(=O)NC3(C#N)CC3)c2)cn1 [Tigolaner]
[1]; in the presence of praziquantel, in particular of 7.5 to 8.5% w/w of praziquantel
  solubility of tigolaner in solketal in the presence of praziquantel: more than 10.5 % w/w
[1]; presence of lactic acid
  effect of lactic acid on solubility of tigolaner in 1,2-isopropylideneglycerol: slightly lowers the solubility
[1]; solketal alone
  solubility of tigolaner in solketal alone: 9.5-9.9 % w/w
Amblyomma hebraeum [2]
  efficacy: 100%
Boophilus microplus [3]
  efficacy: 100%
Boophilus microplus [4]
  efficacy: 100%
Ctenocephalides felis [5]
  efficacy: 100%
Ctenocephalides felis [6]
  efficacy: 100%
Lucilia cuprina
  efficacy: 100%
Musca domestica
  efficacy: 100%
Rhipicephalus sanguineus
  efficacy: 100%
Ixodes ricinus
  efficacy: 100%
Amblyomma hebraeum [7]
  efficacy: 100%
Dermacentor variabilis
  efficacy against tick nymphs: > 90%
Ctenocephalides felis [8]; day 2
  efficacy against fleas: > 95%
Ctenocephalides felis [8]; day 9
  efficacy against fleas: > 90%
